Tests used:
[1] = test system: CYP1A1; test: Induction of CYP1A1 protein expression in HepG2 (7-ethoxyresorufin/resorufin); format: cell-based, Human; conditions: HepG2, 1 μM, 24 hours, vs control (vehicle)
Procedure: After recovering HepG2 under culture in DMEM-fetal bovine serum (FBS) 10% medium and then confirming that the survival rate is 97% or more through trypan blue staining, the recovered product was centrifuged at a speed of 1200 rpm for 5 minutes at room temperature, and the cells were prepared by resuspending them in DMEM-fetal calf serum 10% medium at 1.5×10^5 cells/ml.
Thereafter, the cells were dispensed onto a 96-well plate by 200 μl, and each plate was treated with 3 μl of Compounds 6, 21, 32 and 39 at a concentration of 1 μM diluted in DMEM medium, and then cultured in a cell incubator (5% CO2 incubator) for 24 hours. As a control, 3 μl of 0.05% dimethylsulfoxide (DMSO)/DMEM medium was used for treatment.
After 24 hours, the medium of the plate was discarded, washed with dPBS, treated with 100 μl of 2 μM 7-ethoxyresorufin, and cultured in a cell incubator (5% CO2 incubator) for 30 minutes. After 30 minutes, each 75 μl of fluorescamine (150 μg/ml) was treated, then resorufine excitation was measured at 535 nm and emission at 590 nm. The standard curve was measured and used with 0 to 50 pmol of resorufin solution.
After measurement, all solutions were removed, followed by treating the same with 25 μl of 0.5 M sodium hydroxide (NaOH), the cells were scraped and reacted in a shaker at room temperature for 15 minutes.
After 15 minutes, protein was quantified using a Bradford method, and a value was obtained using a calculation formula (sample resorufin amount/sample protein amount), and then one (1) fold was set using the control.

[2] = test system: DSS-induced inflammatory bowel disease; test: DSS-induced inflammatory bowel disease model: colon mRNA expression (real-time PCR); format: in vivo, C57BL/6 mice
Excerpt: On the 15th day of the experiment, the colon of the mouse was excised to prepare an mRNA sample. In order to extract mRNA, the colon tissue was ground with a homogenizer to acquire a homogeneous suspension. From the homogeneous suspension, mRNA was extracted by a phenol-chloroform sedimentation method using an easy-spin™ (DNA free) total RNA extraction kit (Intron biotechnology, Cat No. 17221). […] Herein, one (1) fold was set using the normal mouse colon as a control.
The real-time polymerase chain reaction was implemented under the conditions of 45 cycles at an annealing temperature of 58° C. and the following primer sequences were used.
The therapeutic effects of Compound 6 and Comparative Example 1 on inflammatory bowel disease were compared. Inflammatory bowel disease was induced in C57BL/6 mice in the same manner as in Example 4, and after oral administration of 10 mg/kg of Compound 6 and Comparative Example 1 to mice, the expression levels of IL-6 and S100a9 mRNA were confirmed in colon tissues.

[3] = test system: psoriasis; test: Imiquimod-induced psoriasis model; format: in vivo, BALB/C mice; conditions: 10 mg/kg oral daily, 0th to 5th days, back skin on 6th day
Procedure: Hair on the back of female BALB/C mice (8-10 weeks old) was shaved using a shaver and shaving cream, and 62.5 mg of 5% imiquimod cream was applied daily for 6 days to the shaved skin from the next day. Vaseline cream was applied to control mice (Vehicle). In the compound 6 administration group according to an embodiment of the present invention, 10 mg/kg of the compound per mouse was completely added to an ethanol-Cremophor EL mixture (1:1, v/v) corresponding to 15% (v/v) of the administered dose, and then, was diluted in phosphate buffered saline to prepare the final ethanol:Cremophor EL:phosphate buffered saline (7.5:7.5:85, v/v/v), followed by oral administration with 200 μl of the prepared solution daily for a total of 6 times from the 0th to the 5th days of the experiment. On the 6th day of the experiment, back skin tissues of mice were obtained to perform histology and mRNA experiments.

[4] = pH-metric solubility and logP (SIRIUS T3); format: physicochemical
Procedure: After dissolving Compound 6 in ethanol, the solubility was measured and analyzed using a SIRIUS T3 machine.

[5] = biological target: CYP2C9 (Homo sapiens, UniProt P11712); test: CYP isoenzyme activity; format: in vitro ADME; conditions: 10 μM
Sequence of CYP2C9 (P11712 whole entry): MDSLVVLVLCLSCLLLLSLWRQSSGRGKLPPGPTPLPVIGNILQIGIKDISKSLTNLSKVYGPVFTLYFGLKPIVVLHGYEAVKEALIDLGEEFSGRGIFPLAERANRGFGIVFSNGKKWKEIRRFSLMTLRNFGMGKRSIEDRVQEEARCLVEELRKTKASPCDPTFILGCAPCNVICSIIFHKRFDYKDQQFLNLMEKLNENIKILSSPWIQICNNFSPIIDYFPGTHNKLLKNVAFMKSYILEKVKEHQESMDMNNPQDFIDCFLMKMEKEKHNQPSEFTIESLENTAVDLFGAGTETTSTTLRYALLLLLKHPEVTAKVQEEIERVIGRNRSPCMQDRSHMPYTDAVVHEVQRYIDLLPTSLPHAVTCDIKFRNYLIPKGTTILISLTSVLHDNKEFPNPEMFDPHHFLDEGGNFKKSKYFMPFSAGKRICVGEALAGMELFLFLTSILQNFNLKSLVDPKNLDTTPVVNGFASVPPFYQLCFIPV

[6] = biological target: CYP2C19 (Homo sapiens, UniProt P33261); test: CYP isoenzyme activity; format: in vitro ADME; conditions: 10 μM
Sequence of CYP2C19 (P33261 whole entry): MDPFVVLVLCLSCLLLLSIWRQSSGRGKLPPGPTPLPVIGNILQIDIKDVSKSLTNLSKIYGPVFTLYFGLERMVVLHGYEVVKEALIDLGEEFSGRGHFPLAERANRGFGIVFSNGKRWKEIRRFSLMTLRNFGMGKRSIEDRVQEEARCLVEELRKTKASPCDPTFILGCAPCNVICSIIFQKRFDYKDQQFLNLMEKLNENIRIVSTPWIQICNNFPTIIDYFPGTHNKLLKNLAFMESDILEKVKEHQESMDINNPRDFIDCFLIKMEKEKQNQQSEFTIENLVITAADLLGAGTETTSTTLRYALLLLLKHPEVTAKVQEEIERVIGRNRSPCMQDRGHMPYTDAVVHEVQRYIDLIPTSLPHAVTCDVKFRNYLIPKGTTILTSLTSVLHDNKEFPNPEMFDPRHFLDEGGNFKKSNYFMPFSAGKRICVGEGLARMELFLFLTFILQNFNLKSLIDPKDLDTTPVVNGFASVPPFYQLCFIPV

[7] = biological target: CYP3A4 (Homo sapiens, UniProt P08684); conditions: 2 days, 10 μM
Sequence of CYP3A4 (P08684 whole entry): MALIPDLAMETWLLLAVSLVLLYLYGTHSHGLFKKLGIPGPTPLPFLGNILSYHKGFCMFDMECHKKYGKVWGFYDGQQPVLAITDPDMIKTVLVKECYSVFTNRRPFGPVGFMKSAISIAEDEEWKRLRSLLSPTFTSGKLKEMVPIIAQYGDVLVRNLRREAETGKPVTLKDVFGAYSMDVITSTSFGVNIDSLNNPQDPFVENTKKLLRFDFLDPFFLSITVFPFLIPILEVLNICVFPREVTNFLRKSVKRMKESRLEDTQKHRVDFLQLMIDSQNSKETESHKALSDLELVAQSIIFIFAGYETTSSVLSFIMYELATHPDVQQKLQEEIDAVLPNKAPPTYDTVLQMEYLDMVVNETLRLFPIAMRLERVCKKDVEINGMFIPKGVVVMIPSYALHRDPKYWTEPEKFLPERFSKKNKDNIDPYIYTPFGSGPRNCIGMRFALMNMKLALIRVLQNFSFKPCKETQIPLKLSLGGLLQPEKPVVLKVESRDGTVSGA
Procedure: Live human hepatocyte cell lines (Corning, Cat No. 454551) were collected using a plating medium, seeded on a 24-well plate so that a cell density thereof was 0.4×10^6 cells/well, and cultured for 2 to 4 hours. After replacing the plating medium with a hepatocyte culture medium, the hepatocytes were cultured for 24 hours. After culturing for 24 hours, hepatocytes were treated with Compound 6 at 1, 5, 25 µM. The medium containing the compound was changed every 24 hours for 2 days. The cultured cells were recovered to prepare mRNA samples. mRNA was extracted from the recovered cells by a phenol-chloroform sedimentation method using TRIZOL reagent (Invitrogen, Cat No. 15596018). From the isolated RNA, cDNA was synthesized by reverse transcription, followed by measuring drug metabolizing enzymes CYP1A2, CYP2C9, CYP2C19, CYP2B6, and CYP3A4 through real-time PCR analysis using the Quant Studio™ 7 Flex Real-Time PCR System (Applied Biosystems, CA). Relative values of the enzyme expression levels were compared by the ΔΔct method using GAPDH as a control enzyme. Herein, one (1) fold was set using the control. Results are expressed as % of control compared to control sample.

[8] = biological target: CYP2D6 (Homo sapiens, UniProt P10635); conditions: 2 days, 10 μM
Sequence of CYP2D6 (P10635 whole entry): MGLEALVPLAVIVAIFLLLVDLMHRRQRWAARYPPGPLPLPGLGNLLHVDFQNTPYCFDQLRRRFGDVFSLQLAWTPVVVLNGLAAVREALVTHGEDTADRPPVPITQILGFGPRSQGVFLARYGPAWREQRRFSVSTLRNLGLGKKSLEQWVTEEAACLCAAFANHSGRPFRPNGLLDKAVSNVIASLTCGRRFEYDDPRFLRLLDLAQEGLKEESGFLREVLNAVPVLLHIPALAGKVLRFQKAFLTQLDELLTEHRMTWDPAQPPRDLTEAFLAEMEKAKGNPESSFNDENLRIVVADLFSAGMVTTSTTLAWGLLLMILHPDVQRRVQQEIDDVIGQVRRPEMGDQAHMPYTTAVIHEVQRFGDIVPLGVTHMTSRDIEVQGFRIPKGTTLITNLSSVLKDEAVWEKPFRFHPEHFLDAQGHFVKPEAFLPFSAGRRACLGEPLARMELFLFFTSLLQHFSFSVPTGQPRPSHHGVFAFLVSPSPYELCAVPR

[9] = 10 mg/kg oral daily, 15th day, compared to solvent control
[10] = 10 mg/kg oral, compared to Comparative Example 1

O=C(Cc1c[nH]c2ccc(Cl)cc12)Nc1nc2ccc(N3CCOCC3)cc2s1 [Compound 6, 2-(5-chloro-1H-indol-3-yl)-N-(6-morpholinobenzo[d]thiazol-2-yl)acetamide]
CYP1A1 protein expression level [1]: significantly higher | Foxp3 expression level in colon lesions [2, 9]: significantly increased | IL-1β expression level in colon lesions [2, 9]: significantly reduced | IL-6 expression level in colon lesions [2, 9]: significantly reduced | IL-10 expression level in colon lesions [2, 9]: significantly increased | IL-17A expression level in colon lesions [2, 9]: significantly reduced | Muc2 expression level in colon lesions [2, 9]: significantly increased | Reg3b expression level in colon lesions [2, 9]: significantly increased | S100a8 expression level in colon lesions [2, 9]: significantly reduced | S100a9 expression level in colon lesions [2, 9]: significantly reduced | TNF-α expression level in colon lesions [2, 9]: significantly reduced | IL-6 mRNA expression level in colon tissues [2, 10]: significantly decreased | S100a9 mRNA expression level in colon tissues [2, 10]: significantly decreased | Foxp3 expression in skin lesions [3]: markedly increased | IL-10 expression in skin lesions [3]: markedly increased | IL-17a mRNA expression level in skin lesions [3]: significantly reduced | S100a8 mRNA expression level in skin lesions [3]: significantly reduced | epithelial thickness [3]: significantly reduced | pH-metric solubility molarity relative to Comparative Example 1 ([4]; Compound 6 vs Comparative Example 1): about 3.92 times | logP ([4]; pH-metric results, SIRIUS T3): 3.04 | pH-metric solubility, Molarity ([4]; pH-metric results, SIRIUS T3): 14.3 μM | pH-metric solubility, Weight/ml ([4]; pH-metric results, SIRIUS T3): 6.104 μg/ml | CYP2C9 activity [5]: 94.5 % of Control Activity | CYP2C19 activity [6]: 93.1 % of Control Activity | inhibition of the enzyme activity of CYP2C19 [6]: little effect | CYP3A4 activity [7]: 85.7 % of Control Activity | CYP2D6 activity [8]: 101.2 % of Control Activity

— patent publication US12187717B2, “Compound and use thereof in treating autoimmune diseases” (PARENCHYMA BIOTECH INC., priority 2022, dated 2025)
